The assay has as its target Death-associated protein kinase 3 (Homo sapiens) (UniProt O43293). Put plainly: Inhibition of recombinant full length GST-tagged human ZIPK expressed in baculovirus expression system at 10 uM in presence of ATP relative to control.

The structures appear in SMILES notation.

Chain of Death-associated protein kinase 3 (Homo sapiens) (O43293 whole entry, looked up): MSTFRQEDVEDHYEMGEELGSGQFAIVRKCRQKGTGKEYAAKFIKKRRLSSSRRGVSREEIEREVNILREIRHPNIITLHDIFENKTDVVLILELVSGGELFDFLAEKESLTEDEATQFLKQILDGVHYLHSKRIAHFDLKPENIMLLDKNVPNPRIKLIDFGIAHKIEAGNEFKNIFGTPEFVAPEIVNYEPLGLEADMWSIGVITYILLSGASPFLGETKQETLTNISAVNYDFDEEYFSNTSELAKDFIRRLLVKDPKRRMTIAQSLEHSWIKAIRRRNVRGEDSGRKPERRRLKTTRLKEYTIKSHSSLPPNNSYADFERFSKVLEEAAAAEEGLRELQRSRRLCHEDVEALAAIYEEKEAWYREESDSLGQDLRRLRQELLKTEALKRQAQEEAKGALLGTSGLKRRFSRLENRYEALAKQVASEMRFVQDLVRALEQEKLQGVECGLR

For `CC(C)(C)NS(=O)(=O)c1ccc(-c2sc(C(=O)N[C@H]3C[C@H](C(=O)O)C3)nc2CC2CCCCC2)c2ccccc12`, the inhibition (commonly the drop in the measured response relative to a control, in per cent) is -5%.

These data come from ChEMBL document CHEMBL4118122, “Identification and biological evaluation of thiazole-based inverse agonists of RORγt” (Bioorg Med Chem Lett, 2018).
